Source: ChEMBL document CHEMBL5532749, “Synthesis and functional evaluation of proteinogenic amino acid-derived synthetic cannabinoid receptor agonists related to MPP-5F-PICA, MMB-5F-PICA, and MDMB-5F-PICA” (RSC Med Chem, 2024)

Key:
Format in all cases: functional, cell-based
Cannabinoid receptor 2 [1] = target: T1, Cannabinoid receptor 2 (Homo sapiens, UniProt P34972); assay: Agonist activity at human CB2 receptor stably transfected in AtT20 cells assessed as maximal efficacy at 30 uM incubated for 60 mins by FLIPR membrane potential assay relative to control; details: filed as agonist
Cannabinoid receptor 1 [2] = target: T2, Cannabinoid receptor 1 (Homo sapiens, UniProt P21554); assay: Agonist activity at human CB1 receptor stably transfected in AtT20 cells assessed as maximal efficacy at 30 uM incubated for 60 mins by FLIPR membrane potential assay relative to control; details: filed as agonist
Cannabinoid receptor 1 [3] = target: T2, Cannabinoid receptor 1; assay: Agonist activity at human CB1 receptor stably transfected in AtT20 cells incubated for 60 mins by FLIPR membrane potential assay
Cannabinoid receptor 2 [4] = target: T1, Cannabinoid receptor 2; assay: Agonist activity at human CB2 receptor stably transfected in AtT20 cells incubated for 60 mins by FLIPR membrane potential assay
Cannabinoid receptor 1 [5] = target: T2, Cannabinoid receptor 1; assay: Agonist activity at human CB1 receptor stably transfected in AtT20 cells assessed as maximal efficacy at 10 uM incubated for 60 mins by FLIPR membrane potential assay relative to control
Cannabinoid receptor 2 [6] = target: T1, Cannabinoid receptor 2; assay: Agonist activity at human CB2 receptor stably transfected in AtT20 cells assessed as maximal efficacy at 10 uM incubated for 60 mins by FLIPR membrane potential assay relative to control
Cannabinoid receptor 1 [7] = target: T2, Cannabinoid receptor 1; assay: Agonist activity at HA-tagged human CB1 receptor stably transfected in AtT20 cells assessed as maximal efficacy at 30 uM incubated for 60 mins by FLIPR membrane potential assay relative to control; details: filed as agonist
Cannabinoid receptor 2 [8] = target: T1, Cannabinoid receptor 2; assay: Agonist activity at HA-tagged human CB2 receptor stably transfected in AtT20 cells assessed as maximal efficacy at 30 uM incubated for 60 mins by FLIPR membrane potential assay relative to control; details: filed as agonist
Cannabinoid receptor 1 [9] = target: T2, Cannabinoid receptor 1; assay: Agonist activity at HA-tagged human CB1 receptor stably transfected in AtT20 cells incubated for 60 mins by FLIPR membrane potential assay
Cannabinoid receptor 2 [10] = target: T1, Cannabinoid receptor 2; assay: Agonist activity at HA-tagged human CB2 receptor stably transfected in AtT20 cells incubated for 60 mins by FLIPR membrane potential assay

T1 sequence (P34972 whole entry): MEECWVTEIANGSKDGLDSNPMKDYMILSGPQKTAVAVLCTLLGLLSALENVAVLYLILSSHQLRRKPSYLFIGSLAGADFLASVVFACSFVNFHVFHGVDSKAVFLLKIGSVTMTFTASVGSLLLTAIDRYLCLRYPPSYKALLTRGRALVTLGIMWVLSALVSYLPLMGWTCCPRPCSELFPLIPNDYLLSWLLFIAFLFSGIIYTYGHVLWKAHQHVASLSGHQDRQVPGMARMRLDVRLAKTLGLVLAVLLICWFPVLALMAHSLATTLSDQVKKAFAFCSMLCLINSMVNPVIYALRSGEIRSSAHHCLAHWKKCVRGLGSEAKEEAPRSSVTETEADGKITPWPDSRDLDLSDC
T2 sequence (P21554 whole entry): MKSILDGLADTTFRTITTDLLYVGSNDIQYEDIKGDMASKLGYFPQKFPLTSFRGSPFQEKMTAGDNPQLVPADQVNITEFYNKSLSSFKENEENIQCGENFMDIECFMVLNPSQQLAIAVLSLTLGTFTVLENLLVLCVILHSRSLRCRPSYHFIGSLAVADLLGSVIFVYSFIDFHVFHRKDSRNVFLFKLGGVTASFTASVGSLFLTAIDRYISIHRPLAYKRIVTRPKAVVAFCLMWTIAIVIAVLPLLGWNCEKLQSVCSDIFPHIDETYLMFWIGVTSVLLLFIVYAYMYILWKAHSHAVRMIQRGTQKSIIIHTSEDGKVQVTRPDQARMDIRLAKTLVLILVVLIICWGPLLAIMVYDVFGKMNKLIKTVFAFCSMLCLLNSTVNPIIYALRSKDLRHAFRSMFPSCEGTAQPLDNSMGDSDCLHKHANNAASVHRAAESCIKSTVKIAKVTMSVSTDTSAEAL

Structure (SMILES) | Emax (Cannabinoid receptor 2 [1]) [%] | Emax (Cannabinoid receptor 1 [2]) [%] | EC50 (Cannabinoid receptor 1 [3]; read-out: EC50) [µM] | EC50 (Cannabinoid receptor 2 [4]) [µM] | also measured
COC(=O)[C@@H](NC(=O)c1cn(CCCCCF)c2ccccc12)[C@@H](C)O | 60 | 134 | 0.049 | 0.148 | 
COC(=O)[C@H](CCC(N)=O)NC(=O)c1cn(CCCCCF)c2ccccc12 | 90 |  |  | 0.199 | Emax (Cannabinoid receptor 1 [5]; filed as agonist): 94%
COC(=O)[C@H](Cc1c[nH]c2ccccc12)NC(=O)c1cn(CCCCCF)c2ccccc12 |  |  |  |  | Emax (Cannabinoid receptor 1 [5]): 34%; Emax (Cannabinoid receptor 2 [6]): 37%
COC(=O)CNC(=O)c1cn(CCCCCF)c2ccccc12 |  |  |  |  | Emax (Cannabinoid receptor 1 [5]; filed as agonist): 40%; Emax (Cannabinoid receptor 2 [6]): 12%
COC(=O)[C@@H](CC(C)C)NC(=O)c1cn(CCCCCF)c2ccccc12 | 112 | 150 | 0.0239 | 0.0532 | 
COC(=O)[C@@H](CCC(N)=O)NC(=O)c1cn(CCCCCF)c2ccccc12 | 76 | 116 | 3.63 | 0.445 | 
COC(=O)[C@@H](Cc1ccc(O)cc1)NC(=O)c1cn(CCCCCF)c2ccccc12 |  |  |  |  | Emax (Cannabinoid receptor 1 [5]; filed as agonist): 57%; Emax (Cannabinoid receptor 2 [6]; filed as agonist): 40%
COC(=O)[C@H](Cc1ccccc1)NC(=O)c1cn(CCCCCF)c2ccccc12 | 99 | 108 | 0.00463 | 0.00741 | EC50 (Cannabinoid receptor 1 [3]; read-out: pEC50 (converted)): 0.00457 µM
COC(=O)[C@@H](CCSC)NC(=O)c1cn(CCCCCF)c2ccccc12 | 90 | 139 | 0.206 | 0.095 | 
COC(=O)[C@H]1CCCN1C(=O)c1cn(CCCCCF)c2ccccc12 |  |  |  |  | Emax (Cannabinoid receptor 1 [5]): 33%; Emax (Cannabinoid receptor 2 [6]): 7%
COC(=O)[C@@H](CO)NC(=O)c1cn(CCCCCF)c2ccccc12 |  |  |  |  | Emax (Cannabinoid receptor 1 [5]; filed as agonist): 66%; Emax (Cannabinoid receptor 2 [6]; filed as agonist): 46%
COC(=O)[C@@H](NC(=O)c1cn(CCCCCF)c2ccccc12)C(C)C |  |  |  |  | Emax (Cannabinoid receptor 1 [7]): 107%; Emax (Cannabinoid receptor 2 [8]): 94%; EC50 (Cannabinoid receptor 1 [9]): 0.0024 µM; EC50 (Cannabinoid receptor 2 [10]): 0.0046 µM
COC(=O)[C@@H]1CCCN1C(=O)c1cn(CCCCCF)c2ccccc12 | 86 | 106 | 0.0207 | 0.0134 | 
COC(=O)[C@@H](C)NC(=O)c1cn(CCCCCF)c2ccccc12 | 72 | 71 |  | 0.478 | 
COC(=O)[C@H](CCCCN)NC(=O)c1cn(CCCCCF)c2ccccc12 |  |  |  |  | Emax (Cannabinoid receptor 1 [5]): 12%; Emax (Cannabinoid receptor 2 [6]): 4%
COC(=O)[C@@H](Cc1c[nH]c2ccccc12)NC(=O)c1cn(CCCCCF)c2ccccc12 |  |  |  |  | Emax (Cannabinoid receptor 1 [5]): 9%; Emax (Cannabinoid receptor 2 [6]): 17%
COC(=O)[C@H](CO)NC(=O)c1cn(CCCCCF)c2ccccc12 | 41 | 123 | 0.2 | 0.625 | 
CC[C@H](C)[C@H](NC(=O)c1cn(CCCCCF)c2ccccc12)C(=O)OC | 124 | 145 | 0.0276 | 0.0192 | 
COC(=O)[C@H](NC(=O)c1cn(CCCCCF)c2ccccc12)C(C)C | 107 | 130 | 0.104 | 0.0162 | 
COC(=O)[C@H](C)NC(=O)c1cn(CCCCCF)c2ccccc12 | 86 | 108 | 0.0788 | 0.0595 | 
COC(=O)[C@H](Cc1ccc(O)cc1)NC(=O)c1cn(CCCCCF)c2ccccc12 | 98 | 135 | 0.182 | 0.0877 | 
COC(=O)[C@@H](CCCCN)NC(=O)c1cn(CCCCCF)c2ccccc12 | 74 |  |  | 1.27 | Emax (Cannabinoid receptor 1 [5]; filed as agonist): 58%
COC(=O)[C@@H](NC(=O)c1cn(CCCCCF)c2ccccc12)C(C)(C)C |  |  |  |  | Emax (Cannabinoid receptor 1 [7]): 110%; Emax (Cannabinoid receptor 2 [8]): 94%; EC50 (Cannabinoid receptor 1 [9]): 0.00045 µM; EC50 (Cannabinoid receptor 2 [10]): 0.0074 µM
COC(=O)[C@H](NC(=O)c1cn(CCCCCF)c2ccccc12)C(C)(C)C | 96 | 129 | 0.0164 | 0.0565 | 
COC(=O)[C@@H](Cc1ccccc1)NC(=O)c1cn(CCCCCF)c2ccccc12 | 57 | 107 | 0.441 | 0.586 | 
COC(=O)[C@H](CC(C)C)NC(=O)c1cn(CCCCCF)c2ccccc12 | 99 | 136 | 0.0255 | 0.00716 | 
CC[C@@H](C)[C@@H](NC(=O)c1cn(CCCCCF)c2ccccc12)C(=O)OC | 107 | 121 | 0.0335 | 0.0268 | 
COC(=O)[C@H](NC(=O)c1cn(CCCCCF)c2ccccc12)[C@H](C)O | 81 | 105 | 2.31 | 0.0934 | 
COC(=O)[C@H](CCSC)NC(=O)c1cn(CCCCCF)c2ccccc12 | 81 | 151 | 0.358 | 0.0596 | 
